Data reported in US10420748B2, “Methods of treatment associated with the granulocyte colony-stimulating factor receptor” (LIGAND PHARMACEUTICALS INCORPORATED, priority 2013, dated 2019).

Experiments:
HL-60 cells [1] = experiment: Induction of apoptosis (Annexin V/Sytox Red, FACS); format: cell-based, human; details: HL-60, 10 μM, 48 hours, versus vehicle (DMSO), FIG. 2
Experimental: HL-60 cells were incubated under similar conditions to the cell growth assay described above (i.e. 50,000 cell/well of a 24-well plate, incubated in cell culture media in the presence of vehicle or compound for 48 hours at 37° C. in an incubator with 5% CO2). Apoptosis was determined by using Annexin V/Sytox Red staining (Life Technologies/Invitrogen) followed by assaying with fluorescence-activated cell sorting (FACS) according to standard protocols. In this assay, vehicle constituted DMSO and the test compound (Compound 101) was diluted to 10 μM with cell culture media from a 10 mM stock solution of Compound 101 in DMSO. The results of the apoptosis assay are described in FIG. 2. […] Compound 101 decreased the number of viable cells in the assay by over 60% and produced nearly a 50% increase in necrotic cells and over a 15% increase in apoptotic cells.

Cynomolgus monkeys = experiment: Blood cell induction (peripheral blood neutrophils); format: in vivo
Experimental: Test compound was evaluated in an animal model for the ability to increase blood cell count, and particularly peripheral blood neutrophils, according to the following protocol. A test compound (Compound 101) was formulated in DMSO:PEG400:PBS at a concentration of 2 mg/mL. Cynomolgus monkeys where then dosed with either vehicle or the test compound via an IV injection for three days. Doses were administered in the morning and then at 5, and 10 hours later. On Day four, a single dose was administered. Blood samples were then collected at the start of the experiment, at Day 4 at 3 hours, 6 hours, and 9 hours after the single dose, and at Day 7. Blood samples were collected and analyzed on a commercial hematology system (ADVIA 2120). The results for neutrophil evaluation are graphically represented in FIG. 3 for both vehicle and Compound 101.

HEPG2 cells = experiment: Cell growth inhibition (ATPlite), HEPG2; format: cell-based; details: Homo sapiens, HEPG2, 72 hours, mean±SEM, n = 3, read-out: Inhibition of Tumor Cell Growth (IC50, μM) HEPG2
Experimental: (§1) The human acute promyelocytic leukemia cell line HL-60, the acute myeloid leukemia cell line Kasumi-1, the lung carcinoma cell line A549, the embryonic kidney cell line HEK293, and the hepatocellular carcinoma cell line HepG2 were purchased from ATCC. HL-60 and A549 cells were grown in RPMI-1640 media containing 10% fetal bovine serum (FBS). Kasumi-1 cells were grown in RPMI-1640 media containing 20% FBS. HEK293 and HepG2 cells were grown in Eagles Minimal Essential Media containing 10% FBS. Cells were plated in 96-well microtiter plates at a density of either 2000 cells/well (A549 cells) or 5000 cells/well and incubated overnight at 37° C. Cell growth was measured by the ATPlite™ istep Kit (PerkinElmer, Waltham, Mass.) according to the manufacturer's instructions. ATPlite™ uses firefly luciferase to indirectly quantify the level of adenosine triphosphate (ATP) as a measure of proliferation and cytotoxicity of cultured mammalian cells. Compounds were diluted in the appropriate cell culture media for each cell type at incremental concentrations ranging from 0.1 nM to 100 tiM. […] Luminescence, quantified as relative luciferase units (RLU), was measured on an Envision plate reader (PerkinElmer). For each replicate, the mean and standard deviation of the RLU at each concentration of compound was calculated. […]

A549 cells = experiment: Cell growth inhibition (ATPlite), A549; format: cell-based; details: Homo sapiens, A549, 72 hours, mean±SEM, n = 3, read-out: Inhibition of Tumor Cell Growth (IC50, μM) A549
Experimental: as §1

HEK293 cells = experiment: Cell growth inhibition (ATPlite), HEK293; format: cell-based; details: Homo sapiens, HEK293, 72 hours, mean±SEM, n = 3, read-out: Inhibition of Tumor Cell Growth (IC50, μM) HEK293
Experimental: as §1

HL-60 cells [2] = experiment: Cell growth inhibition (ATPlite), HL-60; format: cell-based, human; details: HL-60, 72 hours
Experimental: as §1, with “cells.” for “cells. Compounds were diluted in the appropriate cell culture media for each cell type at incremental concentrations ranging from 0.1 nM to 100 tiM.”
HL-60 cells were plated in 96-well microtiter plates in RPMI-1640 media containing 10% FBS at a density of 5000 cells/well. […] Cell growth was measured using the ATPlite™ istep Kit. […]

Kasumi-1 cells = experiment: Cell growth inhibition (ATPlite), Kasumi-1; format: cell-based; details: Homo sapiens, Kasumi-1, 72 hours, mean±SEM, n = 3, read-out: Inhibition of Tumor Cell Growth (IC50, μM) Kasumi-1
Experimental: as §1

- IC50 (HEPG2 cells): 0.9 ± 0.1 µM
- IC50 (A549 cells): 6.1 ± 2.5 µM
- IC50 (HL-60 cells [2]; Homo sapiens, mean±SEM, n = 5, read-out: Inhibition of Tumor Cell Growth (IC50, μM) HL-60): 5 ± 2.8 µM
Structure (SMILES): Cc1cc(C)cc(N2C(=O)/C(=C(\NNC(=O)CCC(N)=O)c3ccccc3)c3ccc(C(F)(F)F)cc32)c1 [Compound 101]
- increase in apoptotic cells (HL-60 cells [1]): > 15%
- increase in necrotic cells (HL-60 cells [1]): ~50%
- cytotoxicity at 10 µM (HL-60 cells [1]; Homo sapiens, read-out: decrease in number of viable cells): > 60%
- neutrophil count following three days without dosing (Cynomolgus monkeys; Day 7 time point): returned to a level similar to the vehicle
- significance of neutrophil count increase versus vehicle (Cynomolgus monkeys; IV, Day 4, 9 hours after the single dose): statistically significant
- neutrophil count versus vehicle after the three day dosing phase (Cynomolgus monkeys; IV, three doses daily for three days, single dose Day 4, Day 4 samples, FIG. 3): higher neutrophil count than vehicle
- IC50 (HEK293 cells): 1.4 ± 0.04 µM
- effect on HL-60 cell growth (dose response curve, FIG. 1) (HL-60 cells [2]; versus Blank): dose-dependent effect
- IC50 (Kasumi-1 cells): 12.1 ± 2.4 µM
